In data set [1] the test system is acetic acid-induced writhes. Nature of the data set: Writhing test (acetic acid). It is filed as in vivo, ICR mice. The following applies: mouse, oral. The procedure:
To examine the pain relief effect of the sulfamate derivative compounds, a writhing test was referring to Fischer, L. G. et al. (2008).
ICR mice (male, 24-28 g; Orient Bio, Korea) were habituated before test in test room for 1 hour. Animals were fasted for 2 hr before administration of compounds. […] All compounds were dissolved in a vehicle of 30% (v/v) PEG 400 or 20% (v/v) Tween 80. The control group was treated with the vehicle without compounds.
[…] Animals were habituated in the cage for 5 min. 5 min after habituation, the number of writhes (abdominal constriction) was counted for 15 minutes referring to Korzeniewska-Rybicka, I. et al. (1998) and compared with that of the control.
In general terms: An intraperitoneal irritant provokes the stretching counted in writhing tests.

The test system of data set [2] is SNL model. The experiment in a line: Antiallodynic activity in the Chung model (SNL, Spinal Nerve Ligation; von Frey). It is filed as in vivo, Sprague-Dawley rats. The procedure:
Male Sprague-Dawley rats (200-220 g, Orient Bio, Korea) were habituated for 1 week before the experiment and allowed free access to food and water throughout the experimentation. Room temperature and humidity were maintained at 24±2° C. and 50±10%, respectively. The neuropathic surgery (SNL, Spinal Nerve Ligation) model was done as described in Kim and Chung (1992). Briefly, an animal was put under gaseous anesthesia with isoflurane and NO2 with a 4:4 flow ratio. The left lumbar spinal nerves L5 and L6 were isolated and tightly ligated with 4-0 silk thread. The wound was treated with a gentamicin antibiotic solution (4 mg/kg, 4 ul/g by bodyweight), and the wound muscle was closed with Catgut® chrome 4/0 thread and the skin was closed with Dafilon 4/0 thread. Sham controls were prepared in the same manner with the spinal nerves were exposed, but no ligated L5 and L6 nerves. Preparation of the vehicle controls were identical to the group treated with compound, except for administration of vehicles without compound in the vehicle control group.
Tactile sensitivity (mechanical allodynia) was evaluated using von Frey monofilaments before and after treatment and animals the animals were included in the study only if the withdrawal threshold value was less than 4 g. One week after surgery, SNL-operated animals (n=4˜6), sham-operated animals (n=4˜10) and vehicle-operated animals (n=4˜13) were tested for tactile sensitivity with von Frey monofilaments with 3 trials in each animal. All animals were placed in a stainless steel mesh chamber and habituated for 30 min in the test cage. The tactile sensitivity for ipsilateral hind paw was measured using the up-and-down method (Dixon, 1980) with seven von Frey monofilaments (0.4, 1, 2, 4, 6, 8, and 15 g) in 3 trials. The tactile sensitivity test was followed by Dixon's method (Dixon, 1980). The 50% paw withdrawal threshold for each paw was calculated using the following formula: [Xth] log=[vFr] log+ky where [vFr] is the force of the last von Frey used, k=0.2249 which is the average interval (in log units) between the von Frey monofilaments, and y is a value that depends upon the pattern of withdrawal responses (Dixon, 1980).
All animals were fasted for 18 h before the administration of the compounds. The antiallodynic effect of the compounds were evaluated at the various doses (n=5˜6), orally administered in a volume of 5 ul/g by bodyweight in a vehicle of 30% (v/v) PEG 400 (Example 7) or 20% (v/v) Tween 80 (Examples 5 and 6) or saline. […]
The relative values compared to the sham group (% control) were calculated and are shown in Table 5, which show an antiallodynic effect of the test compounds in the SNL model in rats.

Data set [3] has as its system Post operation-induced pain model. Nature of the data set: Antiallodynic activity on post operative pain-induced pain model (von Frey). As to conditions: rat, intraperitoneal, 18.9 mg/kg administered, time not given. The format is in vivo, Sprague-Dawley rats. The procedure:
Male Sprague-Dawley rats (Orient Bio, Korea), 300-320 g, total of 201 rats were used (details in Table 7). Rats were habituated at least 3 days before surgery and free access to food and water (room temperature and humidity were maintained at […] and 50±10%, respectively). The process of performing the post-operation model's surgery was adapted from Brennan et al (1996). At first, rats with allodynia (threshold valueless than 8 g) were excluded in Pre-von Frey Test. During the post-operation surgery, rats were anesthetized under gaseous anesthesia with 2% isoflurane. Rats were laid face down on a plate fixed at 37° C. to prevent against hypothermia. The ipsilateral plantar aspect (left side) of the hind paw was prepared in a sterile manner with a 10% povidone-iodine solution. A longitudinal incision (1 cm) (FIG. 2-A) was made with a blade (number 11) through the skin and fascia of the ipsilateral plantar aspect of the foot, starting from 0.5 cm below the proximal edge of the heel and extending toward the toes. Rats' plantar muscles were elevated and incised longitudinally (FIG. 2-B). After hemostasis with gentle pressure, the skin was opposed with 2 mattress sutures (4-0 Dafilon) (FIG. 2-C). The wound site was covered with a 10% povidone-iodine solution gauze and injected with antibiotics (gentamicin, 8 mg/kg, ip). The sutures were removed under halothane anesthesia approximately 30 hours later, at the end of post-operative day 1.
After 2-3 days of recovery, rats with a good response (threshold less than 4 g) in Pre-von Frey Test were selected. According to this response, we made three groups with each group having equal average responses: Group 1, post-operation and drug treated; Group 2, post-operation and vehicle treated; Group 3, no post-operation and vehicle treated. In this study, Group 3 was the sham control (positive) group. The group 2 was used to check for possible failures to generate post-operative pain.
For efficacy measure, the threshold value of group C was assigned 100% efficacy, and the percentage of the threshold values of group A compared to group C (for each different dose level) were calculated as the efficacies. Base on these efficacy values, ED50 was calculated using log fitting. If there was no clear ED50, then we marked the percent efficacy at the highest tested dose or larger than highest tested dose.
For pain threshold test, all animals were placed in a stainless steel meshed chamber and habituated for 30 min in the test box. The tactile sensitivity of the ipsilateral hind paw was measured using the up-and-down method (Dixon, 1980) with seven von Frey monofilaments (0.4, 1, 2, 4, 6, 8, and 15 g) using 3 trials. The 50% paw withdrawal threshold for each paw was calculated using the following formula: [Xth] log=[vFr] log+ky, where [vFr] is the force of the last von Frey filament used, k=0.2249 which is the average interval (in log units) between the von Frey monofilaments, y which is a value that depends upon the pattern of withdrawal responses, and Xth which is the threshold value (Dixon, 1980).
Drugs were dissolved 30% PEG400 for example 60, 0.9% saline for Pregabalin, 20% Tween80 for Tylenol, 0.9% saline for Topiramate. These vehicles were selected depending on the compound's solubility. Intraperitoneal injection (5 μl/g) was done for all drugs.
The relative values compared to the sham (% control) were calculated and shown in Table 8, which show an antiallodynic effect of the compound of examples on Post operation-induced pain model in rats.

For data set [4], the system named is CFA-induced pain model. The experiment in a line: Antiallodynic activity on Complete Freund's Adjuvant (CFA)-induced inflammatory pain model (von Frey). It is filed as in vivo, Sprague-Dawley rats. As to conditions: Rattus norvegicus, ip, read-out: CFA model: effect (%) compared to control. The procedure: Male, Sprague-Dawley rats (200-220 g, Nara Bio, Korea) were habituated for 1 week before surgery and allowed free access to food and water throughout the experimentation. Room temperature and humidity were maintained at 24±2° C. and 50±10%, respectively.
CFA-induced inflammatory pain was induced by the procedure of Nagakura et al. (2003) and Gregory P. et al. (2010) with minor modifications. CFA (sigma, USA) was injected into the left plantar with a 100 ul volume under gaseous anesthesia with isoflurane and NO2 with a 4:4 flow ratio. Sham controls were injected with 100 ul of saline and preparation of the vehicle controls were identical to the group treated with compound, except for administration of vehicles without compound in the vehicle control group.
Tactile sensitivity (mechanical allodynia) was evaluated using von Frey monofilaments before and after treatment, and the animals were included in the study only if the withdrawal threshold value was less than 4 g. One week after surgery, CFA-infused animals (n=4˜6), sham-operated animals (n=12), and vehicle-operated animals (n=17) were tested for tactile sensitivity with von Frey monofilaments, with 3 trials for each animal. All animals were placed in a stainless steel mesh chamber and habituated for 30 min in the test cage. The tactile sensitivity for the ipsilateral hind paw was measured using the up-and-down method (Dixon, 1980) with seven von Frey monofilaments (0.4, 1, 2, 4, 6, 8, and 15 g) in 3 trials. The tactile sensitivity test was followed by Dixon's method (Dixon, 1980). The 50% paw withdrawal threshold for each paw was calculated using the following formula: [Xth] log=[vFr] log+ky where [vFr] is the force of the last von Frey used, k=0.2249 which is the average interval (in log units) between the von Frey monofilaments, and y is a value that depends upon the pattern of the withdrawal responses (Dixon, 1980).
The antiallodynic effect of the compound of Example was evaluated at the doses of 10, 30 and 60 mg/kg (n=4˜6), and were intraperitoneally administered in a volume of 5 ul/g by bodyweight in a vehicle of 30% (v/v) PEG. […]
The relative values compared to the sham (% control) were calculated and are shown in Table 4, which show an antiallodynic effect of the compound of examples in the CFA-induced pain model in rats.

Where [5] appears, read: Rattus norvegicus, po, read-out: SNL model: effect (%) compared to control, rat, oral, 3.5 mg/kg administered, time not given.

Read-outs that look alike come from different tables or passages of the source.

For orientation: melting point means the temperature, or range, at which the solid turns liquid. For orientation: ED50 means the midpoint of the dose-response relation.

Turning to `CC1(C)Oc2ccccc2C(COS([NH-])(=O)=O)O1.[Na+]` (centres unmarked) (hydrate or solvate) [Example 60, Sodium (((2,2-dimethyl-4H-benzo[d][1,3]dioxin-4-yl)methoxy)sulfonyl)amide Trihydrate], the melting point lay within 81 to 86 °C.
As to `CC1(C)Oc2ccccc2C(COS(N)(=O)=O)O1` (racemic) [Example 3, (2,2-dimethyl-4H-benzo[d][1,3]dioxin-4-yl))methyl sulfamate], the “Writh test: effect (%) compared to control” value in data set [1] (80 mg/kg administered, 0.5 h) is “(63.9%, 0.5 h)”. Further, the response vs control in vivo at 3.5 mg/kg in data set [2] (rat, oral, 3.5 mg/kg administered, 0.5 h, read-out: SNL model: effect (%) compared to control) worked out at 35%.
With `CC1(C)Oc2ccccc2[C@H](COS(N)(=O)=O)O1` [Example 1, ((R)-2,2-dimethyl-4H-benzo[d][1,3]dioxin-4-yl)methyl sulfamate], the ED50 in data set [1] (0.25 h, read-out: Writh test: ED50) was 56.8 mg/kg; in data set [2] (rat, oral, 1 h, read-out: SNL model: ED50), 9.9 mg/kg.
In the case of `CC1(C)Oc2ccc(Cl)cc2[C@@H](COS([NH-])(=O)=O)O1.[Na+]` [Example 62, Sodium (S)-(((6-chloro-2,2-dimethyl-4H-benzo[d][1,3]dioxin-4-yl)methoxy)sulfonyl)amide], the melting point was in the range of 133.8 to 135.3 °C. Moreover, the response vs control in vivo at 3.5 mg/kg in data set [2] (setting [5]) was 32.6%.
With `CC1(C)Oc2ccc(Cl)cc2C(COS([NH-])(=O)=O)O1.[Na+]` (centres unmarked) [Example 63, Sodium (((6-chloro-2,2-dimethyl-4H-benzo[d][1,3]dioxin-4-yl)methoxy)sulfonyl)amide], the melting point was in the range of 129.3 to 132.3 °C. Also, in data set [3], the “Post Operation: effect (%) compared to control” value is “(26.6%)”. In addition, the response vs control in vivo at 25 mg/kg in data set [4] amounted to 16.9%. In addition, in data set [2] (setting [5]), the response vs control in vivo at 3.5 mg/kg came out at 32.9%.
As for `[NH-]S(=O)(=O)OC[C@@H]1OC2(CCCC2)Oc2ccccc21.[Na+]` [Example 64, Sodium (R)-(((4H-spiro[benzo[d][1,3]dioxine-2,1′-cyclopentan]-4-yl)methoxy)sulfonyl)amide], the melting point is 132.9 to 134.9 °C. Also, the response vs control in vivo at 3.5 mg/kg in data set [2] (setting [5]) amounted to 22.5%.
Turning to `[NH-]S(=O)(=O)OCC1OC2(CCCC2)Oc2ccccc21.[Na+]` (centres unmarked) [Example 66, Sodium (((4H-spiro[benzo[d][1,3]dioxine-2,1′-cylcopentan]-4-yl)methoxy)sulfonyl)amide], the melting point was in the range of 145.5 to 148.9 °C. Also, in data set [2] (Rattus norvegicus, po, 0.5 h, read-out: SNL model: effect (%) compared to control, rat, oral, 3.5 mg/kg administered, 0.5 h), the response vs control in vivo at 3.5 mg/kg amounted to 59.5%.
Regarding `[NH-]S(=O)(=O)OCC1OC2(CCCC2)Oc2ccc(Cl)cc21.[Na+]` (centres unmarked) [Example 67, Sodium ((6-chloro-(4H-spiro[benzo[d][1,3]dioxine-2,1′-cyclopentan]-4-yl)methoxy)sulfonyl)amide], the melting point lay within 68.6 to 72.3 °C. For the same compound, the response vs control in vivo at 3.5 mg/kg in data set [2] (setting [5]) worked out at 49.1%.
